# Laboratory results reported in patent US20150291593A1, “NOVEL HETEROARYL AND HETEROCYCLE COMPOUNDS, COMPOSITIONS AND METHODS” (HUTCHISON MEDIPHARMA LIMITED, priority 2012, published 2015).
# Assays:
# p110δ/p85α = molecular target: T1, p110δ/p85α (Homo sapiens, UniProt O00329); assay: Transcreener KINASE Assay, kinase inhibition of p110δ/p85α; format: biochemical; conditions: for IC50: read-out: PI3Kδ IC50
# T1 construct: purchased Invitrogen
# Protocol: (§1) PI3K kinases including p110α/p85α, p110δ/p85α and p110γ are purchased from Invitrogen, and p110β/p85α is from Millipore.
# (§2) Primary screening data and IC50 values are measured using Transcreener™ KINASE Assay (Bellbrook, Catalog #3003-10K). […] It is a universal, homogenous, high throughput screening (HTS) technology using a far-red, competitive fluorescence polarization immunoassay based on the detection of ADP to monitor the activity of enzymes that catalyze group transfer reactions. Briefly, the Transcreener KINASE Assay is designed as a simple two-part, endpoint assay.
# (§3) In the first step, the 25 ul kinase reaction is performed by preparing a reaction mixture containing 5 ul test compound (2% DMSO final concentration), 10 ul kinase, buffer (50 mM HEPES, 100 mM NaCl, 1 mM EGTA, 0.03% CHAPS, 3 mM MgCl2, and freshly supplemented 1 mM DTT), and 10 ul 30 uM PIP2/10 uM ATP. The plate is sealed and incubated for 80 min at room temperature. Next, 25 ul ADP detection mix is added per well. The plate is sealed again and incubated for 60 min at room temperature, and then measure fluorescence polarization by Tecan Infinite F500 Reader.
# (§4) Data is analyzed and IC50s are generated using the add-in software for Microsoft Excel, Xlfit™ (version 2.0). IH %=(ADP amount under 2% DMSO-ADP amount under test compound)/ADP amount under 2% DMSO.
# p110β/p85α = molecular target: T2, p110β/p85α (Homo sapiens, UniProt P42338); assay: Transcreener KINASE Assay, kinase inhibition of p110β/p85α; format: biochemical; conditions: for IC50: read-out: PI3Kβ IC50
# T2 construct: purchased Millipore
# T2 sequence (P42338 whole entry, species assumed): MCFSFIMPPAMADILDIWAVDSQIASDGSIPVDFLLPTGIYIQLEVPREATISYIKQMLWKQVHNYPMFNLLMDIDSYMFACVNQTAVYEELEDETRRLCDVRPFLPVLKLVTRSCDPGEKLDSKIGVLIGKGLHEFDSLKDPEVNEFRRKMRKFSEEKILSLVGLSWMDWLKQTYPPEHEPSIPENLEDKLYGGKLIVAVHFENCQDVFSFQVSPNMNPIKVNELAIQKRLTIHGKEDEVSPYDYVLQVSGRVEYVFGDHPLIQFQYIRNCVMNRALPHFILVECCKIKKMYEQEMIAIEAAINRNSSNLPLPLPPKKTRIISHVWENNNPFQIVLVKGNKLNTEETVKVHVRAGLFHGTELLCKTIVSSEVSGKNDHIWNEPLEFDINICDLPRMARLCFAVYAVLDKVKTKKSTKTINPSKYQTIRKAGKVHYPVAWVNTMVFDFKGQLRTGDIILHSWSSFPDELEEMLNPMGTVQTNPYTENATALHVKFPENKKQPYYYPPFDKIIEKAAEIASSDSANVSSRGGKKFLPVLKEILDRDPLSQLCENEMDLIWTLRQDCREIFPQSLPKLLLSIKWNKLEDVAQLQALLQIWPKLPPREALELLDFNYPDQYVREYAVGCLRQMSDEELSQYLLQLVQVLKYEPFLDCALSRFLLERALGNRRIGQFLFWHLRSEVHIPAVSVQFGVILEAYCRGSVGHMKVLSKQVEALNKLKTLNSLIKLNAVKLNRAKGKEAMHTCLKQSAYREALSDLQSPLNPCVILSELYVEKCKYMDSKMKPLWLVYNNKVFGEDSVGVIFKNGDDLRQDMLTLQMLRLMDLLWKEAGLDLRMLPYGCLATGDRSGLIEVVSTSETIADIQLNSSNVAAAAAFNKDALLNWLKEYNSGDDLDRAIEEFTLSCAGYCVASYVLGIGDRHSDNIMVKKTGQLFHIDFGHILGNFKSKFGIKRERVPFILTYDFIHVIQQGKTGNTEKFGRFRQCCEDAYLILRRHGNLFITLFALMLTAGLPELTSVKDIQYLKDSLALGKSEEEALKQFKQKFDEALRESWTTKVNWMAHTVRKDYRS
# T2 sequence (P27986 whole entry partner, species assumed): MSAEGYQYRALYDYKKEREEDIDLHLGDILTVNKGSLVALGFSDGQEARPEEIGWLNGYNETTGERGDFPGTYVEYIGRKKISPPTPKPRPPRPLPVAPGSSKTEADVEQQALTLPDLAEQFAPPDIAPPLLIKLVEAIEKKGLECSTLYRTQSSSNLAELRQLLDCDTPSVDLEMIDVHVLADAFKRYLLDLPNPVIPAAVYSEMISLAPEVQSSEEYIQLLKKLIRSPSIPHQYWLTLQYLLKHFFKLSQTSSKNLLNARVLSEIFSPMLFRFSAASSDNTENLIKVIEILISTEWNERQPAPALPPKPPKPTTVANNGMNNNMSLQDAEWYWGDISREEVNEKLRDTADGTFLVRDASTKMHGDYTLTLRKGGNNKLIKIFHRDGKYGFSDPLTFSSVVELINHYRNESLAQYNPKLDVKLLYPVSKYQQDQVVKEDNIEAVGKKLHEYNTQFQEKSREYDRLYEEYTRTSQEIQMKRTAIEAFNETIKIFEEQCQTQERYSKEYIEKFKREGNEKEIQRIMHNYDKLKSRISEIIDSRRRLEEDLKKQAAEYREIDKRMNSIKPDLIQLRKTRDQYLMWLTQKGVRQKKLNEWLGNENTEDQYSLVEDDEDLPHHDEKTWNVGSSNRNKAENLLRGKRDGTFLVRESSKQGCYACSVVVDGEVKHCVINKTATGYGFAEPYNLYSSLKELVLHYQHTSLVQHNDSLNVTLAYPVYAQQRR
# Protocol: as §1, §2, §3, §4
# PI3Kγ = molecular target: T3, PI3Kγ (Mus musculus, UniProt Q9JHG7); assay: Acumen Assay - Raw264.7 p-AKT Assay (C5a stimulated); format: cell-based; conditions: Raw264.7 macrophage cells, compound 30 min, 10 nM C5a 5 min, p-AKT (Ser473) readout; read-out: PI3Kγ cell-C5a Raw264.7 IC50
# T3 construct: endogenous in cells; host or cells: Raw264.7 macrophage cells
# Protocol: Acumen® eX3 (A Mμltilaser Microplate Cytometer For Enhanced High Content Screening): TTP LabTech
# 3×10^4 Raw264.7 macrophage cells were seeded into 96-well plates with DMEM+10% heat-inactivated FBS at […], 90 ul/well, overnight. After starvation for 3 hr at 37° C. under 5% CO2, Raw264.7 cells were treated with 10 ul/well various concentrations of compound or 0.5% DMSO for 30 min, and then stimulated with 10 ul/well 10 nM C5a for 5 min.
# 1.) Cells were fixed 110 μL of 4% pre-warmed Paraformaldehyde (2% final), incubate for 45 min at room temperature.
# 2.) Remove paraformaldehyde solution. Add 100 μL of ice-cold 0.1% Triton X-100 in PBS and leave at 4° C. for 30 min.
# 3.) Wash once in 100 μL PBS.
# 4.) Incubate with 100 μL blocking buffer (1% BSA, in PBS) for 2 hours at room temperature.
# 5.) Wash once for 5 min with 100 ul PBS.
# 6.) Incubate with 40 μL 1:200 dilution of phospho AKT (Ser473) rabbit antibody in antibody dilution buffer (0.1% BSA, in PBS) overnight at 4° C.
# 7.) Wash for 3 times for 10 min with 100 ul PBS.
# 8.) Incubate for 90 min at room temperature with 50 μL of goat anti-rabbit Alex488 antibody at a 1:1,000 dilution in antibody dilution buffer (0.1% BSA, in PBS). Cover plate in foil to keep out of light.
# 9.) Wash for 3 times for 10 min with 100 μL PBS.
# 10.) Add 50 μL of 1.5 μM Propidium Iodide solution to each well to determine cell number at a 1:1,000 dilution in PBS (stock: 1.5 mM).
# 11.) Incubate at room temperature for 30 min.
# 12.) Seal the plate with a black cover-seal (supplied with plate).
# 13.) Load the plate into the Acumen Explorer and scan with the appropriate instrument settings.
# p110γ = molecular target: T4, p110γ (Homo sapiens, UniProt P48736); assay: Transcreener KINASE Assay, kinase inhibition of p110γ; format: biochemical; conditions: for IC50: read-out: PI3Kγ IC50
# T4 construct: purchased Invitrogen
# T4 sequence (P48736 whole entry, species assumed): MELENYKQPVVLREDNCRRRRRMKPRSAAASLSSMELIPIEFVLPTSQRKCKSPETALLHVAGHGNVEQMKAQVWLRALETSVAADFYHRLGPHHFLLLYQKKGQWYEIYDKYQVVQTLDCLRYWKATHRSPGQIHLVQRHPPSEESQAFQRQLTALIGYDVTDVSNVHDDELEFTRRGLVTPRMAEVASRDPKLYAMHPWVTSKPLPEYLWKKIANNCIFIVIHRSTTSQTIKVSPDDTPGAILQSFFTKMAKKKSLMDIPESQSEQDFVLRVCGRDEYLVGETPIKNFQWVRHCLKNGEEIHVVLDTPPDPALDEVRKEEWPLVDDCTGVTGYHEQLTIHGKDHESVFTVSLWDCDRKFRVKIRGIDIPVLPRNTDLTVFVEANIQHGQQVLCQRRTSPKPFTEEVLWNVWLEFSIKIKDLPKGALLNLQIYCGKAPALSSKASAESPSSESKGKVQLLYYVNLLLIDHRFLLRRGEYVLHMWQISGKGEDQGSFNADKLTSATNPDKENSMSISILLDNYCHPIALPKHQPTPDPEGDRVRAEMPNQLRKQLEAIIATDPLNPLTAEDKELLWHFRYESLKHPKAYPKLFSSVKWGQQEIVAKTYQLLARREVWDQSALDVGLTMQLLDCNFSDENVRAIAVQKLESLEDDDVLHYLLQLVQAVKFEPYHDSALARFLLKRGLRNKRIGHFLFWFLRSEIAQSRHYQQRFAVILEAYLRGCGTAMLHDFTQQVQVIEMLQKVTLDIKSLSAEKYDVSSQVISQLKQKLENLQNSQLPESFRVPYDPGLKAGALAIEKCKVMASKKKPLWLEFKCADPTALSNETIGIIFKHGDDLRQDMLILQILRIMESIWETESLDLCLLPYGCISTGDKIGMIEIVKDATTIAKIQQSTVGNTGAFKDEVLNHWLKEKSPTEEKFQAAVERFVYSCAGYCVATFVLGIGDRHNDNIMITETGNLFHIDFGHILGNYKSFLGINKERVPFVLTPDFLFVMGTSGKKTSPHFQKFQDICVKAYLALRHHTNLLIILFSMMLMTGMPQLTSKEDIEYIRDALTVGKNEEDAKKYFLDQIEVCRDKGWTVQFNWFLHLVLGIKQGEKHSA
# Protocol: PI3K kinases including p110α/p85α, p110δ/p85α and p110γ are purchased from Invitrogen, and p110β/p85α is from Millipore. Primary screening data and IC50 values are measured using Transcreener™ KINASE Assay (Bellbrook, Catalog #3003-10K). […] It is a universal, homogenous, high throughput screening (HTS) technology using a far-red, competitive fluorescence polarization immunoassay based on the detection of ADP to monitor the activity of enzymes that catalyze group transfer reactions. Briefly, the Transcreener KINASE Assay is designed as a simple two-part, endpoint assay. […] The plate is sealed and incubated for 80 min at room temperature. Next, 25 ul ADP detection mix is added per well. The plate is sealed again and incubated for 60 min at room temperature, and then measure fluorescence polarization by Tecan Infinite F500 Reader. Data is analyzed and IC50s are generated using the add-in software for Microsoft Excel, Xlfit™ (version 2.0).
# p110α/p85α = molecular target: T5, p110α/p85α (Homo sapiens, UniProt P42336); assay: Transcreener KINASE Assay, kinase inhibition of p110α/p85α; format: biochemical
# T5 construct: purchased Invitrogen
# T5 sequence (P42336 whole entry, species assumed): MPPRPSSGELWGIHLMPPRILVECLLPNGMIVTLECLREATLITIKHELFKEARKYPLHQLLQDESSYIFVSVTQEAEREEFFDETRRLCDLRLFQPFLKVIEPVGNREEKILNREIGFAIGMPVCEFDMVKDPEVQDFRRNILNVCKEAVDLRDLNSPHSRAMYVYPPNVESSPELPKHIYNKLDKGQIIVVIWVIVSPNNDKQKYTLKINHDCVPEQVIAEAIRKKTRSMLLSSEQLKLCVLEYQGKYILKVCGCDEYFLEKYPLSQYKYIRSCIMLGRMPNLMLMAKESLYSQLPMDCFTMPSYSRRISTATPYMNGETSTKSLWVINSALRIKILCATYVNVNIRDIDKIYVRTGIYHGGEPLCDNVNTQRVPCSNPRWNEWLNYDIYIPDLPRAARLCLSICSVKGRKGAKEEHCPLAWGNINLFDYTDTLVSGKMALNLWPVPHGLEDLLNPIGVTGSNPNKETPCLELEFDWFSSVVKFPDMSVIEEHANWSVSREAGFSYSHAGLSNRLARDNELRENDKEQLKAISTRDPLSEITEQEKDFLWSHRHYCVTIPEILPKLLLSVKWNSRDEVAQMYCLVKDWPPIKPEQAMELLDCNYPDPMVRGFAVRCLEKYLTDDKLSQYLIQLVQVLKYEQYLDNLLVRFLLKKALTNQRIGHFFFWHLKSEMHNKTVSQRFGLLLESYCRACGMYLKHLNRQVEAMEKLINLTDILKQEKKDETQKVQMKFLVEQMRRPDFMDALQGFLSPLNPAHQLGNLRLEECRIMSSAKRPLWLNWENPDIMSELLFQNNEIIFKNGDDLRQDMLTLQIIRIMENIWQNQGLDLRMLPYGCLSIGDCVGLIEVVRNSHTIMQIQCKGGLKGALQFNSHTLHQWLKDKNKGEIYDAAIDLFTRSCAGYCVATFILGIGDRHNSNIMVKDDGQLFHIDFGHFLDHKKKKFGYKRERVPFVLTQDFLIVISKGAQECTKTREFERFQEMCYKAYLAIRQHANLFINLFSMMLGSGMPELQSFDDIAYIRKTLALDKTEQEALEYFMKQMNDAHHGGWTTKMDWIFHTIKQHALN
# T5 sequence (P27986 whole entry partner, species assumed): as the sequence (P27986 whole entry partner, species assumed) above
# Protocol: as §1, §2, §3, §4
# T1 sequence (O00329 whole entry, species assumed): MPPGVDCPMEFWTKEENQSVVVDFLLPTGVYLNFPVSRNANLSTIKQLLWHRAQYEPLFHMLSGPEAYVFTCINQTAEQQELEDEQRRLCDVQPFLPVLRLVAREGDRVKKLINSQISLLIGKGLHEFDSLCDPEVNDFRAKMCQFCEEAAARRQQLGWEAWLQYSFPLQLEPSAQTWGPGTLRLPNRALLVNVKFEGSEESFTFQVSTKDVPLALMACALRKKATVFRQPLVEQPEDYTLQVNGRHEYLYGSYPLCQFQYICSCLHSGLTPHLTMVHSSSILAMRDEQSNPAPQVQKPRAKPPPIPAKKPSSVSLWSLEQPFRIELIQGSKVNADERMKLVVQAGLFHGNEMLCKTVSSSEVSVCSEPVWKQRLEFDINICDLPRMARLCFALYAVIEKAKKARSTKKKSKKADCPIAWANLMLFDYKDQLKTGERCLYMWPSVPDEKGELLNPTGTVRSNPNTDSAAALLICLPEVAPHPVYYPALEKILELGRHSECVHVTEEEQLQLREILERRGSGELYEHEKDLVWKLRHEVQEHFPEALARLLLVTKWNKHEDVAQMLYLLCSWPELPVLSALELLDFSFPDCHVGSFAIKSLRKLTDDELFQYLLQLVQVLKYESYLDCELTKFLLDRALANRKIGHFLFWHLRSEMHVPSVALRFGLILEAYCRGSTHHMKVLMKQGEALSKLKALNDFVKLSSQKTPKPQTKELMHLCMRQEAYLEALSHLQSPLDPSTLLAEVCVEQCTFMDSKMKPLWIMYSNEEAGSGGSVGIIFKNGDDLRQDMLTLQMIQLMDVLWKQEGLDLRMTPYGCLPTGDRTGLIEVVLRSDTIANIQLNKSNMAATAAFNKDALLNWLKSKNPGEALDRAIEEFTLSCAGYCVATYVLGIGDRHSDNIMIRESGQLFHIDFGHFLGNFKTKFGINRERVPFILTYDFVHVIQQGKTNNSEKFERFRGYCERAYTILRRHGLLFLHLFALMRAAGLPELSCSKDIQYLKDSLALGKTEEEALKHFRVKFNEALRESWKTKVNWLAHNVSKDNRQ
# T1 sequence (P27986 whole entry partner, species assumed): as the sequence (P27986 whole entry partner, species assumed) above
structure (smiles),measurement,setting,value
"CC(Nc1nc(N)nc2c1C(=O)CCN2)c1cn2ccc(F)c2c(=O)n1-c1ccccc1 (single isomer, unassigned) [Compound 407]",IC50,p110δ/p85α,1 nM
same,IC50,p110β/p85α,68 nM
same,IC50,PI3Kγ,63 nM
same,IC50,p110γ,2 nM
"CC(Nc1nc(N)ncc1C#N)c1cn2ccc(F)c2c(=O)n1-c1ccccc1 (single isomer, unassigned) [Compound 449]",IC50,p110δ/p85α,1 nM
same,IC50,p110β/p85α,45 nM
same,IC50,PI3Kγ,87 nM
same,IC50,p110γ,4 nM
"CC(Nc1ncnc2[nH]cc(F)c12)c1cc2ncc(Cl)n2c(=O)n1-c1ccccc1 (single isomer, unassigned) [Compound 450]",IC50,p110δ/p85α,0.4 nM
same,IC50,p110β/p85α,42 nM
same,IC50,PI3Kγ,72 nM
same,IC50,p110γ,17 nM
"N#Cc1c[nH]c2ncnc(N3CCC[C@H]3c3nn4cccc4c(=O)n3-c3ccccc3)c12 [Compound 1, (S)-4-(2-(4-oxo-3-phenyl-3,4-dihydropyrrolo[1,2-f][1,2,4]triazin-2-yl)pyrrolidin-1-yl)-7H-pyrrolo[2,3-d]pyrimidine-5-carbonitrile]",PI3Kδ IH % @ 1 uM,p110δ/p85α,97.8%
same,IC50,p110δ/p85α,2 nM
same,PI3Kβ IH % @ 1 uM,p110β/p85α,47.7%
same,PI3Kα IH % @ 1 uM,p110α/p85α,50.8%
same,PI3Kγ IH % @ 1 uM,p110γ,91.9%
Nc1nc(N2CCC[C@H]2c2nn3cccc3c(=O)n2-c2ccccc2)c2nc[nH]c2n1 [Compound 2],PI3Kδ IH % @ 1 uM,p110δ/p85α,98.2%
same,PI3Kβ IH % @ 1 uM,p110β/p85α,38.0%
same,PI3Kα IH % @ 1 uM,p110α/p85α,5.1%
same,PI3Kγ IH % @ 1 uM,p110γ,98.8%
O=c1c2cccn2nc([C@@H]2CCCN2c2ncnc3[nH]cc(Cl)c23)n1-c1ccccc1 [Compound 3],PI3Kδ IH % @ 1 uM,p110δ/p85α,>100%
same,IC50,p110δ/p85α,15 nM
same,PI3Kβ IH % @ 1 uM,p110β/p85α,17.8%
same,PI3Kα IH % @ 1 uM,p110α/p85α,12.0%
same,PI3Kγ IH % @ 1 uM,p110γ,82.5%
same,IC50,p110γ,365 nM
O=c1c2cccn2nc([C@@H]2CCCN2c2ncnc3[nH]cnc23)n1-c1ccccc1 [Compound 4],PI3Kδ IH % @ 1 uM,p110δ/p85α,94.1%
same,IC50,p110δ/p85α,10 nM
same,PI3Kβ IH % @ 1 uM,p110β/p85α,17.4%
same,PI3Kα IH % @ 1 uM,p110α/p85α,2.6%
same,IC50,PI3Kγ,3940 nM
same,PI3Kγ IH % @ 1 uM,p110γ,92.4%
N#Cc1c(N)ncnc1N1CCC[C@H]1c1nn2cccc2c(=O)n1-c1ccccc1 [Compound 5],PI3Kδ IH % @ 1 uM,p110δ/p85α,98.3%
same,PI3Kβ IH % @ 1 uM,p110β/p85α,46.4%
same,PI3Kα IH % @ 1 uM,p110α/p85α,32.5%
same,PI3Kγ IH % @ 1 uM,p110γ,69.6%
N#Cc1c[nH]c2ncnc(N3CCC[C@H]3c3nn4cccc4c(=O)n3-c3cccc(Cl)c3)c12 [Compound 15],PI3Kδ IH % @ 1 uM,p110δ/p85α,100%
same,PI3Kβ IH % @ 1 uM,p110β/p85α,5.4%
same,PI3Kα IH % @ 1 uM,p110α/p85α,24.6%
same,PI3Kγ IH % @ 1 uM,p110γ,72.0%
same,IC50,p110γ,312 nM
"NC(=O)c1c[nH]c2ncnc(N3CCC[C@H]3c3nn4cccc4c(=O)n3-c3ccccc3)c12 [Compound 94, (S)-4-(2-(4-oxo-3-phenyl-3,4-dihydropyrrolo[1,2-f][1,2,4]triazin-2-yl)pyrrolidin-1-yl)-7H-pyrrolo[2,3-d]pyrimidine-5-carboxamide]",PI3Kδ IH % @ 1 uM,p110δ/p85α,>100%
same,PI3Kβ IH % @ 1 uM,p110β/p85α,53.5%
same,PI3Kα IH % @ 1 uM,p110α/p85α,36.3%
same,PI3Kγ IH % @ 1 uM,p110γ,>100%
same,IC50,p110γ,22 nM
"C=Cc1c[nH]c2ncnc(N3CCC[C@H]3c3nn4cccc4c(=O)n3-c3ccccc3)c12 [Compound 98, (S)-3-phenyl-2-(1-(5-vinyl-7H-pyrrolo[2,3-d]pyrimidin-4-yl)pyrrolidin-2-yl)pyrrolo[1,2-f][1,2,4]triazin-4(3H)-one]",PI3Kδ IH % @ 1 uM,p110δ/p85α,88.4%
same,PI3Kβ IH % @ 1 uM,p110β/p85α,15.2%
same,PI3Kα IH % @ 1 uM,p110α/p85α,16.2%
same,PI3Kγ IH % @ 1 uM,p110γ,87.9%
same,IC50,p110γ,99 nM
N#Cc1c[nH]c2ncnc(N3CCC[C@H]3c3nn4ccc(C#N)c4c(=O)n3-c3ccccc3)c12 [Compound 113],PI3Kδ IH % @ 1 uM,p110δ/p85α,99.3%
same,IC50,p110δ/p85α,6 nM
same,PI3Kβ IH % @ 1 uM,p110β/p85α,74.9%
same,IC50,p110β/p85α,244 nM
same,PI3Kα IH % @ 1 uM,p110α/p85α,28.3%
same,PI3Kγ IH % @ 1 uM,p110γ,>100%
same,IC50,p110γ,43 nM
N#Cc1cnc(N)nc1N1CC[C@H]1c1nn2ccc(Cl)c2c(=O)n1-c1ccccc1 [Compound 212],IC50,p110α/p85α; read-out: PI3Kα IC50,> 1000 nM
C[C@H]1CCN(c2nc(N)ncc2C#N)C1c1nn2ccc(Cl)c2c(=O)n1-c1ccccc1 (stereo partly shown) [Compound 236],IC50,p110δ/p85α,2 nM
same,IC50,p110β/p85α,81 nM
same,IC50,PI3Kγ,46 nM
same,IC50,p110γ,4 nM
CC(=O)c1c[nH]c2ncnc(N3C[C@@H](F)C[C@H]3c3nn4ccc(Cl)c4c(=O)n3-c3ccccc3)c12 [Compound 268],IC50,PI3Kγ,19 nM
same,PI3Kγ IH % @ 1 uM,p110γ,100%
O=c1c2c(Cl)ccn2nc([C@@H]2CCCN2c2ncnc3[nH]cnc23)n1-c1ccccn1 [Compound 311],IC50,p110δ/p85α,< 0.5 nM
same,IC50,PI3Kγ,54 nM
Nc1ncc(C(=O)C(F)(F)F)c(N2CC[C@H]2c2nn3ccc(Cl)c3c(=O)n2-c2ccccc2)n1 [Compound 325],IC50,p110β/p85α,> 1000 nM
same,IC50,PI3Kγ,80 nM
"CC(=O)c1cnc(N)nc1N1CCC[C@H]1c1nn2ccc(Cl)c2c(=O)n1-c1ccccc1 [Compound 369, (S)-2-(1-(5-acetyl-2-aminopyrimidin-4-yl)pyrrolidin-2-yl)-5-chloro-3-phenylpyrrolo[2,1-f][1,2,4]triazin-4(3H)-one]",IC50,PI3Kγ,22 nM
"N#Cc1c[nH]c2ncnc(N3CC(=O)C[C@H]3c3nn4ccc(Cl)c4c(=O)n3-c3ccccc3)c12 [Compound 380, (S)-4-(2-(5-chloro-4-oxo-3-phenyl-3,4-dihydropyrrolo[2,1-f][1,2,4]triazin-2-yl)-4-oxopyrrolidin-1-yl)-7H-pyrrolo[2,3-d]pyrimidine-5-carbonitrile]",IC50,PI3Kγ,19 nM
N#Cc1cnc(N)nc1N1CC(=O)C[C@H]1c1nn2ccc(Cl)c2c(=O)n1-c1ccccc1 [Compound 403],IC50,PI3Kγ,11 nM
